Data published in paper PMC12361511 (The EMBO Journal, 2025).

Experiments:
[1] = molecular target: T1, PPP2R1A (Mus musculus, UniProt Q76MZ3); experiment: thermal shift (DSF, SYPRO Orange); assay type: binding; conditions: 5 µM protein, 10 mM NaH2PO4 pH 6.0, 25 mM NaCl, 1 mM β-mercaptoethanol; destabilising
T1 construct: full length, C-terminal 6xHis, E. coli (BL-21 or Arctic Express), about 65 kDa, isolated subunit; 893-PAL is the native protein in mouse FL5.12 / mPCE cells

[2] = molecular target: T2, KPNB1.1 (Homo sapiens, UniProt Q14974); experiment: thermal shift (DSF, SYPRO Orange); assay type: binding; conditions: 5 µM protein, 10 mM NaH2PO4 pH 6.0, 25 mM NaCl, 1 mM β-mercaptoethanol; destabilising
T2 construct: amino acids 1-442 (N-terminal half), N-terminal 10xHis, codon-optimized, E. coli, about 44 kDa
T2 sequence (Q14974 1-442): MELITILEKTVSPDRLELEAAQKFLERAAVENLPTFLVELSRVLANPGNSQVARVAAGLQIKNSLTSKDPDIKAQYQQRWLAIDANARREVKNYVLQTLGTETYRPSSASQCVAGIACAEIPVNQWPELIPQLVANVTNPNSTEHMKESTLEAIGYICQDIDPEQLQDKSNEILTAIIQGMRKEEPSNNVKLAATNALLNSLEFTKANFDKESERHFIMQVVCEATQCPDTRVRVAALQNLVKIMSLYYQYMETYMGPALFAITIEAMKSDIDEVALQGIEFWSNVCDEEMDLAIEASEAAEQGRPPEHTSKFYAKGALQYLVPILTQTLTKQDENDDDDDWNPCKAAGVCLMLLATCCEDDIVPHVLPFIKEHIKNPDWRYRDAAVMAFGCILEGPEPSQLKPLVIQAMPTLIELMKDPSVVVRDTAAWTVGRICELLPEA

[3] = system: FL5.12; experiment: cells; parameters: cytotoxicity / viability IC50 in FL5.12 cells at 48 h; conditions: Mus musculus, FL5.12, 48 h
[4] = molecular target: T1, PPP2R1A; experiment: thermal shift (DSF, SYPRO Orange); also CD; assay type: binding; conditions: 5 µM protein, 10 mM NaH2PO4 pH 6.0, 25 mM NaCl, 1 mM β-mercaptoethanol; destabilising, reversible on dialysis
[5] = molecular target: T2, KPNB1.1; experiment: thermal shift (DSF, SYPRO Orange); also CD; assay type: binding; conditions: 5 µM protein, 10 mM NaH2PO4 pH 6.0, 25 mM NaCl, 1 mM β-mercaptoethanol; destabilising, reversible on dialysis

T1 sequence (Q76MZ3 2-589): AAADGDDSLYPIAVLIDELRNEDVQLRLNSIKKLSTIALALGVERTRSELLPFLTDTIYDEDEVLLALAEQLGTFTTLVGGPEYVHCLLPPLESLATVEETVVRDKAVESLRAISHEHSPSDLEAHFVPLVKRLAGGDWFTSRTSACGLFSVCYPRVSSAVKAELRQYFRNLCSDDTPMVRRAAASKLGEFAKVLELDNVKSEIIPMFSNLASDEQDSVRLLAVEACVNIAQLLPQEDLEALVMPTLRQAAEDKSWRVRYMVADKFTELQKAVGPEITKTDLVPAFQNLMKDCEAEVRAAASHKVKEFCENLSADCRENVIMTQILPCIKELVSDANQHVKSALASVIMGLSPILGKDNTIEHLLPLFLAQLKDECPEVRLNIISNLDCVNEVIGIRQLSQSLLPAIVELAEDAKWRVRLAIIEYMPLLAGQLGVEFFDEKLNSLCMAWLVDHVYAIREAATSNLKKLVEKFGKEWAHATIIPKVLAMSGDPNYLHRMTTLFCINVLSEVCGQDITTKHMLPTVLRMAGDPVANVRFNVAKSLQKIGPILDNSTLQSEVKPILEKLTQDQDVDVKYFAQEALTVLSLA

CCCCCCCCc1ccc(CCC(N)(CO)CO)cc1 [FTY720]
dTm [1]: SH-BC-893, FTY720, and the natural sphingolipid phytosphingosine reduced rather than increased the Tm of both
dTm [2]: SH-BC-893, FTY720, and the natural sphingolipid phytosphingosine reduced rather than increased the Tm of both

CCCCCCCCc1ccc([C@H]2CCN[C@@H]2CO)cc1 [SH-BC-893]
IC50 [3]: 2000 nM
dTm [4]: SH-BC-893, FTY720, and the natural sphingolipid phytosphingosine reduced rather than increased the Tm of both
dTm [5]: SH-BC-893, FTY720, and the natural sphingolipid phytosphingosine reduced rather than increased the Tm of both

CCCCCCCCCCCCC/C=C/[C@@H](O)[C@H](CO)N(C)C [dimethylsphingosine]
dTm [1]: safingol and dimethylsphingosine (DMS) induced conformational changes in PPP2R1A and KPNB1
dTm [2]: safingol and dimethylsphingosine (DMS) induced conformational changes in PPP2R1A and KPNB1

CCCCCCCCCCCCCC[C@@H](O)[C@@H](O)[C@@H](N)CO [phytosphingosine]
IC50 [3]: 3200 nM
dTm [1]: SH-BC-893, FTY720, and the natural sphingolipid phytosphingosine reduced rather than increased the Tm of both
dTm [2]: SH-BC-893, FTY720, and the natural sphingolipid phytosphingosine reduced rather than increased the Tm of both

CCCCCCCCCCCCCCC[C@H](O)[C@@H](N)CO [safingol]
dTm [1]: safingol and dimethylsphingosine (DMS) induced conformational changes in PPP2R1A and KPNB1
dTm [2]: safingol and dimethylsphingosine (DMS) induced conformational changes in PPP2R1A and KPNB1

CCCCCCCCCCCCC/C=C/[C@@H](O)[C@@H](N)CO [sphingosine]
dTm [1]: sphingosine triggered conformational changes in both PPP2R1A and KPNB1
dTm [2]: sphingosine triggered conformational changes in both PPP2R1A and KPNB1
